Data on 14 compounds can be found in US10335401B2, “Non-aromatic heterocyclic derivative having MGAT2 inhibitory activity” (Shionogi & Co., Ltd., priority 2015, dated 2019).

As a reminder, the IC50 is the concentration that gives 50% inhibition.

The target of the assay is recombinant human MGAT2 (Homo sapiens (Human), UniProt Q3SYC2). The experiment in a line: Measurement of human MGAT2 inhibitory activity. In kind it is biochemical. The settings on record: recombinant human MGAT2 membrane fraction (Sf-9); 2-Oleoylglycerol and Oleoyl-CoA substrates; 1 hour at room temperature; Diolein detected by RapidFire Q-TOF MS. The source says: A full-length human MGAT2 gene to which a Flag-tag had been added at the N-terminal was inserted into pFastBac (from Invitrogen). A recombinant baculovirus was produced in accordance with the protocol for a Bac-to-Bac baculovirus expression system (produced by Invitrogen), and Sf-9 cells were infected therewith. The cells were collected and sonicated, and then the membrane fraction was collected through centrifugation.
Chain of recombinant human MGAT2 (Q3SYC2 whole entry): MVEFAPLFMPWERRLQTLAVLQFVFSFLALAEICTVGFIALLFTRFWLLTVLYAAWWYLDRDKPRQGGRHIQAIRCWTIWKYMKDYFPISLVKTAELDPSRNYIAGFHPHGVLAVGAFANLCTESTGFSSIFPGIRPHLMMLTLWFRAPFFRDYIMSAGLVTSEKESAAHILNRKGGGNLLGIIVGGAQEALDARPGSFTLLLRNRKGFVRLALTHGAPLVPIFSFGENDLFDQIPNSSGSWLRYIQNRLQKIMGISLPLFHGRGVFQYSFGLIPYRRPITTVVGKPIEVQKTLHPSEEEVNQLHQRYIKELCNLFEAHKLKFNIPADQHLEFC
Solutions of the compounds of the present invention in DMSO were each aliquoted into 0.2-μL portions in a 384-well polystyrene microplate produced by Corning Incorporated, and 5 μL of an enzyme solution prepared with an assay buffer (100 mmol/L phosphate buffer (pH 7.4) containing 2 mmol/L DTT) and 5 μL of a substrate solution (100 mmol/L phosphate buffer (pH 7.4), 30 μmol/L 2-Oleoylglycerol, 10 μmol/L Oleoyl-CoA) were added thereto, and the resultant was stirred and centrifuged, and incubated in a moist chamber at room temperature for 1 hour. […] Diolein as a reaction product (P) of 2-Oleoylglycerol as the substrate and an ammonium adduct ion of the IS were detected, and the peak intensity ratio, P/IS, was calculated from the peak heights to evaluate the inhibitory activity. […] The inhibitory activity was calculated from the formula below with TIBCO Spotfire (produced by TIBCO Software Inc.): Inhibitory activity (%)=[1−{Sample−Control(−)}/{Control(+)−Control(−))}]*100 where Sample indicates a peak intensity ratio: P/IS, when the compound of the present invention was added.
Turning to `O=C(CO)NCC1=C(c2ccc(C(F)F)cn2)C[C@](c2ccc(OCCCC(F)(F)F)cc2)(C(F)(F)F)NC1=O` [Compound I-63], the IC50 came out at 110 nM.

As to `CS(=O)(=O)CC(=O)NCC1=C(c2ccc(C(F)F)cn2)C[C@](c2ccc(OCCCC(F)(F)F)cc2)(C(F)(F)F)NC1=O` [Compound I-59], the 50% inhibitory concentration (IC50) amounted to 1.1 nM.

On to `CS(=O)(=O)CC(=O)NCC1=C(c2ccc(OC(F)F)cn2)C[C@](c2ccc(-c3ccccc3)cc2)(C(F)(F)F)NC1=O` [Compound I-99], for which the concentration for half-maximal inhibition (IC50) amounted to 26 nM.

On to `CS(=O)(=O)CC(=O)NCC1=C(c2ccc(OC(F)F)cn2)C[C@](c2ccc(Br)cc2)(C(F)(F)F)NC1=O` [Compound I-78], for which the half-maximal inhibitory concentration (IC50) amounted to 25 nM.

Take `Cc1ccc(C2=C(CNC(=O)C3CC3)C(=O)N[C@@](c3ccc(OCCCC(F)(F)F)cc3)(C(F)(F)F)C2)nc1` [Compound I-8]: the IC50 came to 13 nM.

As for `COc1ccc(C2=C(CNC(=O)CO)C(=O)N[C@@](c3ccc(OCCCC(F)(F)F)cc3)(C(F)(F)F)C2)nc1` [Compound I-40], the half-inhibitory concentration (IC50) was 43 nM.

Take `Cn1cc(-c2ccc([C@]3(C(F)(F)F)CC(c4ccc(OC(F)F)cn4)=C(CNC(=O)CS(C)(=O)=O)C(=O)N3)cc2)cn1` [Compound I-98]: the IC50 is 70 nM.

For `COc1ccc(C2=C(CNC(=O)NC(C)C)C(=O)N[C@@](c3ccc(OCCCC(F)(F)F)cc3)(C(F)(F)F)C2)nc1` [Compound I-32], the IC50 was 97 nM.

On to `Cc1ccc(C2=C(CNC(N)=O)C(=O)N[C@@](c3ccc(OCCCC(F)(F)F)cc3)(C(F)(F)F)C2)nc1` [Compound I-6], for which the IC50 was 120 nM.

Turning to `COc1ccc(C2=C(CNC(=O)C(C)C)C(=O)N[C@@](c3ccc(OCCCC(F)(F)F)cc3)(C(F)(F)F)C2)nc1` [Compound I-14], the 50% inhibitory concentration (IC50) was 8 nM.

On to `COc1ccc(C2=C(CNC(=O)CC#N)C(=O)N[C@@](c3ccc(OCCCC(F)(F)F)cc3)(C(F)(F)F)C2)nc1` [Compound I-37], for which the IC50 amounted to 28 nM.

As for `CC(=O)NCC1=C(c2ccc(C(C)=O)cn2)C[C@](c2ccc(OCCCC(F)(F)F)cc2)(C(F)(F)F)NC1=O` [Compound I-51], the IC50 is 130 nM.

On to `Cc1ccc(C2=C(CNC(=O)CS(C)(=O)=O)C(=O)N[C@@](c3ccc(OCCCC(F)(F)F)cc3)(C(F)(F)F)C2)nc1` [Compound I-10], for which the IC50 was under 4.6 nM.

Regarding `COc1ccc(C2=C(CNC(=O)C3CC(=O)C3)C(=O)N[C@@](c3ccc(OCCCC(F)(F)F)cc3)(C(F)(F)F)C2)nc1` [Compound I-24], the 50% inhibitory concentration (IC50) was 40 nM.
